The text below walks through data of patent US10562861B2, “Carboxylic acid compounds” (Sumitomo Dainippon Pharma Co., Ltd., priority 2012, dated 2020).

Experiment [1] has as its system Renca mouse tumour cells. Put plainly: Tumour growth studies in Renca, a murine syngeneic renal carcinoma tumour model. The class given is in vivo. The settings on record: Balb/C mice, Renca s.c., vs 0.5% methylcellulose. As to the method:
Experiments were conducted on female mice (Balb/C genotype, at least 5 weeks old). Renca mouse tumour cells (Cancer Chemother Pharmacol. 1995; 36 (1): 7-12) were kindly provided by Dr. T. Fujioka at Department of Urology, Iwate Medical University School of Medicine. Renca mouse tumour cells (5×10^4) were implanted subcutaneously in the flank of mice on day 0. Mice were treated with either drug vehicle (0.5% methylcellulose), the compound of Example 3 (0.3 mg/kg once a week) or the compound of Example 4 (3 mg/kg once a week) administered orally (p. o.) on days 1, 8, and 15. Tumour volumes were assessed at least twice weekly by bilateral vernier caliper measurements.
Tumour growth inhibition from the start of treatment was assessed by comparison of the differences in tumour growth rate between control and the compound of Example 3 treated groups, as shown in FIG. 9.
Tumour growth inhibition from the start of treatment was assessed by comparison of the differences in tumour growth rate between control and the compound of the Example 4 treated groups, as shown in FIG. 10.

Experiment [2] relates to CT26 mouse tumour cells. As to the kind of experiment: Survival studies in CT26, a murine syngeneic colon carcinoma tumour model. The class given is in vivo. The settings on record: Balb/C mice, CT26 s.c., vs control or RT. As to the method: Experiments were conducted on female mice (Balb/C genotype, at least 5 weeks old). CT26 mouse tumour cells (CRL-2638) were purchased from ATCC. CT26 mouse tumour cells (1×10^6) were implanted subcutaneously in the flank of mice on day 0. Mice in radiotherapy alone (RT) group and combination group were anesthetized and received radiation therapy (2 Gy) at days 7, 8, 9, 10, and 11. Mice in combination group were also treated with a compound of Example 3 (30 mg/kg once a week) administered orally (p.o.) or Example 4 (5 mg/kg once a week) administered intravenously (i. v.) on days 7, 14, 22, and 27. Tumour volumes were assessed at least twice weekly by bilateral vernier caliper measurements. Survival period was determined by the time taken for tumours to reach 4 times the volume at the time of treatment.

The structures appear in SMILES notation.

For the molecule `CCC[C@@H](CCO)Nc1nc(N)nc(C)c1Cc1ccc(CN(CC(=O)O)CC(F)F)cc1OC` [Example 3, (S)-2-((4-((2-amino-4-(1-hydroxyhexan-3-ylamino)-6-methylpyrimidin-5-yl)methyl)-3-methoxybenzyl)(2,2-difluoroethyl)amino)acetic acid], in experiment [1] (0.3 mg/kg once a week p.o. on days 1, 8, 15, FIG. 9), the Tumour growth inhibition entry is listed as “inhibited tumour growth”. Also, in experiment [2] (RT 2 Gy days 7-11 plus 30 mg/kg once a week p.o., FIG. 12), the “Survival period (time for tumours to reach 4 times the volume at treatment)” value is “survived significantly longer”.
Turning to `CCC[C@@H](CCO)Nc1nc(N)nc(C)c1Cc1ccc(CN(CC(=O)O)CC(F)(F)F)cc1OC` [Example 4, (S)-2-((4-((2-amino-4-(1-hydroxyhexan-3-ylamino)-6-methylpyrimidin-5-yl)methyl)-3-methoxybenzyl)(2,2,2-trifluoroethyl)amino)acetic acid], the Tumour growth inhibition entry in experiment [1] (3 mg/kg once a week p.o. on days 1, 8, 15, FIG. 10) is “inhibited tumour growth”. In experiment [2] (RT 2 Gy days 7-11 plus 5 mg/kg once a week i.v., FIG. 13), the “Survival period (time for tumours to reach 4 times the volume at treatment)” value is listed as “survived significantly longer”.
